Consider 4 molecules from article PMC6757289, “Design and Characterization of SGK3-PROTAC1, an Isoform Specific SGK3 Kinase PROTAC Degrader” (ACS Chemical Biology, 2019).

Where two headings read alike, the source gives them in different places.

Holding throughout (test): kinase profiling panel
Common to all, as to format: biochemical
What all share (settings): read-out: % Activity Remaining

The target of one test is T1, ASK1 (Homo sapiens, UniProt Q99683).
T1 sequence (Q99683 1-1374): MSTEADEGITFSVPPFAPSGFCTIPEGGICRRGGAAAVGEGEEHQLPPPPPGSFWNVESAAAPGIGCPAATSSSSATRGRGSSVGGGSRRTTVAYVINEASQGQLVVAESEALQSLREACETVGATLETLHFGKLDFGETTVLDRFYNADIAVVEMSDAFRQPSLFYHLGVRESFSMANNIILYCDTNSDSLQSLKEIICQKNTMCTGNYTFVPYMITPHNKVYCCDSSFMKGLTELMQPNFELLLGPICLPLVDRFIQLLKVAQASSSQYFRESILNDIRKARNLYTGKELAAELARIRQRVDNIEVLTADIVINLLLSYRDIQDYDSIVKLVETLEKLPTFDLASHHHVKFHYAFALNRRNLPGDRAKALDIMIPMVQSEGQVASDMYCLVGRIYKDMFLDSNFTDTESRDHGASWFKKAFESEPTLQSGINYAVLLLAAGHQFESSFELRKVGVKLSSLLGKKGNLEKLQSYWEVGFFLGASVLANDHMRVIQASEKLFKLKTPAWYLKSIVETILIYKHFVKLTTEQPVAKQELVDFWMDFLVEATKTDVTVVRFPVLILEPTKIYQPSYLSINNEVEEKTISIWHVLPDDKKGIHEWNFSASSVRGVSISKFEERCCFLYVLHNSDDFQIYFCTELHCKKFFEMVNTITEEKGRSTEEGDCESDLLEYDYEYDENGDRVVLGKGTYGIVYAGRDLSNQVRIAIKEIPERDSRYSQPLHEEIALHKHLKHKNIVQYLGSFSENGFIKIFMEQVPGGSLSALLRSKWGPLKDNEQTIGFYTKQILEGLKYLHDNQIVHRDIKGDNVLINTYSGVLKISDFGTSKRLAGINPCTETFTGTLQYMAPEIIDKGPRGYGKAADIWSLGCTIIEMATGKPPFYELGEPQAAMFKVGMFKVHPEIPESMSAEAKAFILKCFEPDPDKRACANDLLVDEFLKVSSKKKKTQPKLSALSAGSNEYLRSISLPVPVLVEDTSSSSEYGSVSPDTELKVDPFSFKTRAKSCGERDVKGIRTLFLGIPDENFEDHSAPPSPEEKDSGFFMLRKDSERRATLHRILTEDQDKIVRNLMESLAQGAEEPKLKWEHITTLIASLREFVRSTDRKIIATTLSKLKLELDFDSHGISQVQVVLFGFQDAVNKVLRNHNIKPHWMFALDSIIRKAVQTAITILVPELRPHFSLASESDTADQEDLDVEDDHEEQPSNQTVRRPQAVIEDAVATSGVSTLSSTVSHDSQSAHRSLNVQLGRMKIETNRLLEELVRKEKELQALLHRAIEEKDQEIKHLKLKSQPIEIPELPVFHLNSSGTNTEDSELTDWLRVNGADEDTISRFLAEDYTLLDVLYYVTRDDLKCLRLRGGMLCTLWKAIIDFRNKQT
The source says: (§1) Protein kinase profiling against a Dundee panel of 140 protein kinases was undertaken at the International Centre for Protein Kinase Profiling. The result for each kinase was presented as a mean kinase activity of the reaction taken in triplicate relative to a control sample treated with DMSO. Assay conditions and abbreviations are available at http://www.kinase-screen.mrc.ac.uk.

The target in a further test is ERK1 (Homo sapiens, UniProt P27361).
ERK1, sequence (P27361 whole entry): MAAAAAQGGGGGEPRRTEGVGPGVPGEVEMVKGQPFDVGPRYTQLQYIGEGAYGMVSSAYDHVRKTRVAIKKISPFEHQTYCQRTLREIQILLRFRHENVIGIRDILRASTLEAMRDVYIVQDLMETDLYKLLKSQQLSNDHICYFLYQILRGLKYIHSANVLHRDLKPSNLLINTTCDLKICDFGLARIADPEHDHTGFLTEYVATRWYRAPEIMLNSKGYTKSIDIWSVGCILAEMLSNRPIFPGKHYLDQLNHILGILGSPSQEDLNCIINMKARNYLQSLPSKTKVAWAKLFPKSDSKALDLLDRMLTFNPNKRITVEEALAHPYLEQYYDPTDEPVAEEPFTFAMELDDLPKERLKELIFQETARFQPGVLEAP
Text: as §1

The next test concerns the target SIK3 (Homo sapiens, UniProt Q9Y2K2).
Text: as §1

A further test deals with T2, TBK1 (Homo sapiens, UniProt Q9UHD2).
T2 sequence (Q9UHD2 1-729): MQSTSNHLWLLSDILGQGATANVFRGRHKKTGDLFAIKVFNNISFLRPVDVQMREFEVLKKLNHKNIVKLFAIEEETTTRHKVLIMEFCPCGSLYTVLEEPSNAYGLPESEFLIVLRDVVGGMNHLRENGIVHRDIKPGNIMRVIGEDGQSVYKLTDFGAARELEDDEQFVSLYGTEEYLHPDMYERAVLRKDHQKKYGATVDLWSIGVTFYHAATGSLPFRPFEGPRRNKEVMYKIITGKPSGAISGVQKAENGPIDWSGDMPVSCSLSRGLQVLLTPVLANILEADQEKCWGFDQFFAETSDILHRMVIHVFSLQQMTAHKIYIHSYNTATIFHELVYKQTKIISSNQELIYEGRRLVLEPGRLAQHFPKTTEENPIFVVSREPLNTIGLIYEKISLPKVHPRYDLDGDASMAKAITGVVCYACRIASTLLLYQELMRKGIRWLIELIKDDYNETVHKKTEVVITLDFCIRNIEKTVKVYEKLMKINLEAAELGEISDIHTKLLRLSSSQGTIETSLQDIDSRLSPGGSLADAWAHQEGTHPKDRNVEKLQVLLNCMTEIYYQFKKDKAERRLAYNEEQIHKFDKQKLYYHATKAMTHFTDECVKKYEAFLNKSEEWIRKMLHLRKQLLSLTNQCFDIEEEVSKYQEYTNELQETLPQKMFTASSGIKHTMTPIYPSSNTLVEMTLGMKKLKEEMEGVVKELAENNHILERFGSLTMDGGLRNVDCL
Text: as §1

SIK3, sequence (Q9Y2K2 whole entry): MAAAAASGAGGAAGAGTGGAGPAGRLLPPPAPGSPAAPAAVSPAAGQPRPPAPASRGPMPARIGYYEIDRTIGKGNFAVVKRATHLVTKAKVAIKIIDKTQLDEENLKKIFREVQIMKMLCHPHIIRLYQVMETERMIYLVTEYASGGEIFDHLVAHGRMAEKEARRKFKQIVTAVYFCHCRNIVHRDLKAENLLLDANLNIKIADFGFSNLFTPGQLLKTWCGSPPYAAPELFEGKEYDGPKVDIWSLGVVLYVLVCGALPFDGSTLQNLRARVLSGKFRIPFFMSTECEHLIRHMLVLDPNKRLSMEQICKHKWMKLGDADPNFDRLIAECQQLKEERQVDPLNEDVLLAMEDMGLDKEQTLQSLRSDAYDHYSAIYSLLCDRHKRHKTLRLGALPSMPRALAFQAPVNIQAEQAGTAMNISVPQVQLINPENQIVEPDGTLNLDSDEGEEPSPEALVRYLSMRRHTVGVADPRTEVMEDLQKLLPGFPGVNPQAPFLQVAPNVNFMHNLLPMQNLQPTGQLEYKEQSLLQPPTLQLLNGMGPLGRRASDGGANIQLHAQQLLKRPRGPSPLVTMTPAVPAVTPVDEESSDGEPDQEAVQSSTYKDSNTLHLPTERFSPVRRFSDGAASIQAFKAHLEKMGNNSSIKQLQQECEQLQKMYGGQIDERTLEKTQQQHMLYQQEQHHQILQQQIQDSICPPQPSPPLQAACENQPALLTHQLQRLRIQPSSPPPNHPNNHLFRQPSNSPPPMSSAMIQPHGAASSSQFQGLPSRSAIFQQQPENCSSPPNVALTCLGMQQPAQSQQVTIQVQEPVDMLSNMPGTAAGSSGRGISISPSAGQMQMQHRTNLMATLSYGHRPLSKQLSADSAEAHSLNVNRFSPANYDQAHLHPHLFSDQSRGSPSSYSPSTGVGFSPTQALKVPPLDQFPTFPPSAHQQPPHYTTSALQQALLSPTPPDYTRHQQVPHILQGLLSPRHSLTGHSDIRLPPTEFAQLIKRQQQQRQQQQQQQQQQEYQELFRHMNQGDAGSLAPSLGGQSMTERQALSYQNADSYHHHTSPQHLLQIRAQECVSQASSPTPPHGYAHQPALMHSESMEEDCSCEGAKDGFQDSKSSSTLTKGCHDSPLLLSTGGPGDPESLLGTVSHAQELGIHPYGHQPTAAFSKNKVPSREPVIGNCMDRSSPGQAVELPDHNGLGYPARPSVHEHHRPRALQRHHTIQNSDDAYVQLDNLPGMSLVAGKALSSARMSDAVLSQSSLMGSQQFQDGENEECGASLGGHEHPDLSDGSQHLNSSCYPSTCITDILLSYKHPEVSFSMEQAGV

As a reminder, the remaining activity is the signal under treatment as a percentage of the control signal. As to `COc1ccc(Cl)c(S(=O)(=O)Nc2ccc(-c3nc(OC[C@H]4CNCCO4)c4c(C)n[nH]c4n3)cc2)c1` [290-R, reference compound], the remaining activity at 1 µM at ASK1 is 104%; on ERK1 it was 115%; on SIK3, 102%; at TBK1, 62%.

As to `Cc1ccc(F)c(S(=O)(=O)Nc2ccc(-c3nc(OC[C@H]4CNCCO4)c4cn[nH]c4n3)cc2)c1` [308-R, reference compound], the remaining activity at 1 µM is 87% at ASK1, 106% on ERK1, 69% at SIK3 and 83% on TBK1.

As to `Cc1ccc(F)c(S(=O)(=O)Nc2ccc(-c3nc(OC[C@H]4CN(CCCCCCOCCOCCOCC(=O)N[C@H](C(=O)N5C[C@H](O)C[C@H]5C(=O)NCc5ccc(-c6scnc6C)cc5)C(C)(C)C)CCO4)c4cn[nH]c4n3)cc2)c1` [SGK3-PROTAC1], the remaining activity at 1 µM at ASK1 (1 µM) stood at 113%; on ERK1 (1 µM), 103%; on SIK3 (1 µM), 79%; at TBK1 (1 µM), 93%.

For the molecule `Cc1ccc(F)c(S(=O)(=O)Nc2ccc(-c3nc(OC[C@H]4CN(CCCCCCOCCOCCOCC(=O)N[C@H](C(=O)N5C[C@@H](O)C[C@H]5C(=O)NCc5ccc(-c6scnc6C)cc5)C(C)(C)C)CCO4)c4cn[nH]c4n3)cc2)c1` [cisSGK3-PROTAC1], the remaining activity at 1 µM amounted to 102% on ASK1 (1 µM), 101% at ERK1 (1 µM), 117% on SIK3 (1 µM) and 111% at TBK1 (1 µM).
